Laboratory results reported in ChEMBL document CHEMBL1201862, “PubChem BioAssay data set” (2004).
Values joined by “and” are separate entries in the source; they are usually repeats but may differ in a detail not shown here. Equal entries are not always repeated.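 Step 1: Grow cells in 96-well plates. Step 2: Expose to compound for 48 hours at 5 concentrations. Step 3: Interpolate endpoints linearly; if unreached, use highest concentration. GI50: concentration for 50% inhibition of growth.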 Active and inactive are the calls of the source. No stated cut-off is given here; in the data, active = GI50 up to about 1.1 µM and inactive = higher.

What was measured:
Assay in all cases: NCI tumour cell line growth inhibition, 48 h
[1] = system: ACHN
[2] = system: K562
[3] = system: KM12
[4] = system: LOX IMVI
[5] = system: MDA-N
[6] = system: MOLT-4
[7] = system: Malme-3M
[8] = system: NCI-H23
[9] = system: NCI-H522
[10] = system: OVCAR-3
[11] = system: OVCAR-8
[12] = system: SF-268
[13] = system: SF-539
[14] = system: SK-MEL-28
[15] = system: SK-MEL-2
[16] = system: SK-MEL-5
[17] = system: SNB-19
[18] = system: SNB-75
[19] = system: SW-620
[20] = system: OVCAR-5

SMILES | GI50 [1] | GI50 [2] | GI50 [3] | GI50 [4] | GI50 [5] | GI50 [6] | GI50 [7] | GI50 [8] | GI50 [9] | GI50 [10] | GI50 [11] | GI50 [12] | GI50 [13] | GI50 [14] | GI50 [15] | GI50 [16] | GI50 [17] | GI50 [18] | GI50 [19] | GI50 [20]
Clc1ccc(C(SCc2ccccc2)SCc2ccccc2)cc1 | > 10 µM (inactive) | > 10 µM (inactive) | > 10 µM (inactive) | > 10 µM (inactive) | > 10 µM (inactive) | > 10 µM (inactive) | > 10 µM (inactive) | > 10 µM (inactive) | > 10 µM (inactive) | > 10 µM (inactive) | > 10 µM (inactive) | > 10 µM (inactive) | > 10 µM (inactive) | > 10 µM (inactive) | > 10 µM (inactive) | > 10 µM (inactive) | > 10 µM (inactive) | > 10 µM (inactive) | > 10 µM (inactive) | 
COc1ccc2c3c1OC1C(F)C=CC4(O)C(C2)NCCC314 (stereo unspecified) | 2.65 µM (inactive) | 0.805 µM (active) | 3.33 µM (inactive) | 2.31 µM (inactive) | 2.42 µM (inactive) | 0.887 µM (active) | 1.97 µM (inactive) | 1.92 µM (inactive) | 0.407 µM (active) | 1.87 µM (inactive) | 1.94 µM (inactive) | 2.59 µM (inactive) |  | 3.07 µM (inactive) | 2.38 µM (inactive) | 3.94 µM (inactive) | 1.81 µM (inactive) | 2.06 µM (inactive) | 1.37 µM (inactive) | 3.2 µM (inactive)
C[C@]12CC[C@@H]3c4ccc(O)cc4CC[C@H]3[C@@H]1C/C(=C\c1ccncc1)C2=O | 20.1 µM (inactive) | 8.61 µM (inactive) | 13.7 µM (inactive) | 20.7 µM (inactive) | 11.3 µM (inactive) | 4.71 µM (inactive) | 14.1 µM (inactive) | 29 µM (inactive) |  | 14.8 µM (inactive) | 18.5 µM (inactive) | 30.1 µM (inactive) | 10.9 µM (inactive) | 64.3 µM (inactive) | 12.8 µM (inactive) | 8.04 µM (inactive) | 38.5 µM (inactive) | > 100 µM (inactive) | 27.5 µM (inactive) | 27.5 µM (inactive)
CC(=O)OCC1OC(N2C(=O)NC(=O)C3C=C4CCCCC4=CC32)C(OC(C)=O)C1OC(C)=O (stereo unspecified) | > 100 µM (inactive) | > 100 µM (inactive) |  | > 100 µM (inactive) | > 100 µM (inactive) | > 100 µM (inactive) | > 100 µM (inactive) | > 100 µM (inactive) | > 100 µM (inactive) | > 100 µM (inactive) |  |  | > 100 µM (inactive) | > 100 µM (inactive) | > 100 µM (inactive) | > 100 µM (inactive) | > 100 µM (inactive) |  | > 100 µM (inactive) | > 100 µM (inactive)
OC(c1cc(C(F)(F)F)nc2c(Cl)cc(Cl)cc12)C1CCCCN1 (stereo unspecified) | > 24.4 µM (inactive) | 5.22 µM (inactive) | 6.3 µM (inactive) | 2.93 µM (inactive) | 77.1 µM (inactive) | 6.38 µM (inactive) |  | 8.55 µM (inactive) | 7.53 µM (inactive) | 3.53 µM (inactive) | 13.2 µM (inactive) | 16.8 µM (inactive) | 14 µM (inactive) | 15.3 µM (inactive) | > 23.3 µM (inactive) | 8.65 µM (inactive) | > 36.5 µM (inactive) | 11.8 µM (inactive) | 5.89 µM (inactive) | > 35 µM (inactive)
COc1cc(NC(C)CCCN)c2ncccc2c1 (stereo unspecified) [PRIMAQUINE PHOSPHATE] | 51.6 µM (inactive) and 82 µM (inactive) | 28.9 µM (inactive) and 20.9 µM (inactive) | > 81.5 µM (inactive) and 73.3 µM (inactive) | 43.9 µM (inactive) and 51.4 µM (inactive) | 29.6 µM (inactive) | 25.2 µM (inactive) and 39.4 µM (inactive) |  | > 100 µM (inactive) and > 90.6 µM (inactive) | 90.6 µM (inactive) and 52.1 µM (inactive) | 22.6 µM (inactive) and 43.7 µM (inactive) | 70.6 µM (inactive) and 63.1 µM (inactive) | 94.4 µM (inactive) and 79.3 µM (inactive) | > 100 µM (inactive) |  | 26.9 µM (inactive) and 45.1 µM (inactive) | 29.8 µM (inactive) and 17.8 µM (inactive) |  | 47.2 µM (inactive) and 24.1 µM (inactive) | 52.2 µM (inactive) and 73.8 µM (inactive) | > 91 µM (inactive) and > 83.4 µM (inactive)
CC1(O)OC(=O)C2=C1CCC1C2CCC2(C)C(O)CCC12 (stereo unspecified) | > 100 µM (inactive) | > 100 µM (inactive) | > 100 µM (inactive) | 25.6 µM (inactive) | > 100 µM (inactive) | > 10 µM (inactive) | > 100 µM (inactive) | > 100 µM (inactive) | > 100 µM (inactive) | > 100 µM (inactive) | > 100 µM (inactive) | > 100 µM (inactive) | > 100 µM (inactive) | > 100 µM (inactive) |  | > 100 µM (inactive) | > 100 µM (inactive) |  | > 100 µM (inactive) | > 100 µM (inactive)
COC(=O)C(C(=O)OC)C1CC(=O)c2c(Br)sc(Br)c21 (stereo unspecified) | 13.7 µM (inactive) | 21 µM (inactive) | 29.2 µM (inactive) | 12.9 µM (inactive) | 23.4 µM (inactive) | 3.33 µM (inactive) | 13.4 µM (inactive) | 12.8 µM (inactive) |  | 2.06 µM (inactive) | 16.8 µM (inactive) | 18.5 µM (inactive) | 18.6 µM (inactive) | 16.6 µM (inactive) | 13.3 µM (inactive) | 15.1 µM (inactive) | 20.5 µM (inactive) | 22.9 µM (inactive) | 11.5 µM (inactive) | 15.1 µM (inactive)
O=C(O)C1(C(O)c2ccccc2)SCCCS1 (stereo unspecified) | > 10 µM (inactive) | > 10 µM (inactive) | > 10 µM (inactive) | > 10 µM (inactive) | > 10 µM (inactive) | > 10 µM (inactive) | > 10 µM (inactive) | > 10 µM (inactive) |  | > 10 µM (inactive) | > 10 µM (inactive) | > 10 µM (inactive) | > 10 µM (inactive) | > 10 µM (inactive) | > 10 µM (inactive) | > 10 µM (inactive) | > 10 µM (inactive) | > 10 µM (inactive) | > 10 µM (inactive) | > 10 µM (inactive)
c1ccc(C(NC2=NCCO2)C2CC2)cc1 (stereo unspecified) | > 100 µM (inactive) |  | > 100 µM (inactive) | > 100 µM (inactive) | > 100 µM (inactive) | > 100 µM (inactive) | > 100 µM (inactive) | > 100 µM (inactive) | > 100 µM (inactive) | > 100 µM (inactive) | > 100 µM (inactive) | > 100 µM (inactive) | 32.3 µM (inactive) | > 100 µM (inactive) | > 100 µM (inactive) | > 100 µM (inactive) | 88.9 µM (inactive) | > 100 µM (inactive) | > 100 µM (inactive) | > 100 µM (inactive)
Oc1ccc(-c2nc3cc(C(F)(F)F)ccc3s2)cc1 | 14.5 µM (inactive) | 23.9 µM (inactive) | 13.1 µM (inactive) | 12.8 µM (inactive) | 17.7 µM (inactive) | 27.2 µM (inactive) | 13.6 µM (inactive) | 15.9 µM (inactive) | 12.6 µM (inactive) | 15 µM (inactive) | 15.6 µM (inactive) | 16.1 µM (inactive) | 19.5 µM (inactive) |  | 16.1 µM (inactive) | 14.9 µM (inactive) | 16.7 µM (inactive) |  | 20.2 µM (inactive) | 17.2 µM (inactive)
O=C1CC(=O)c2c(O)cc(O)c(c2O)-c2c(ccc(O)c2O)C2=CC(=O)c3c(O)cc(O)c(c3O2)-c2c1ccc(O)c2O.O=C1CC2(O)Oc3c1c(O)cc(O)c3-c1c(ccc(O)c1O)-c1cc(=O)c3c(O)cc(O)c(c3o1)-c1c2ccc(O)c1O |  | > 50 µM (inactive) |  | > 50 µM (inactive) | > 50 µM (inactive) | > 50 µM (inactive) | > 50 µM (inactive) | > 50 µM (inactive) |  | > 50 µM (inactive) | > 50 µM (inactive) | > 50 µM (inactive) | > 50 µM (inactive) | > 50 µM (inactive) | > 50 µM (inactive) | > 50 µM (inactive) | > 50 µM (inactive) | > 50 µM (inactive) | > 50 µM (inactive) | > 50 µM (inactive)
O=[N+]([O-])c1ccc(-c2nc3cc([N+](=O)[O-])ccc3[nH]2)cc1 | 31 µM (inactive) |  | 24.8 µM (inactive) | 26.5 µM (inactive) | 33.2 µM (inactive) | 29.9 µM (inactive) | 31.3 µM (inactive) | 21.4 µM (inactive) | 11.4 µM (inactive) | 42.1 µM (inactive) | 22.4 µM (inactive) | 44.9 µM (inactive) | 23.5 µM (inactive) | 40.6 µM (inactive) | 23.6 µM (inactive) | 16.8 µM (inactive) | 43.1 µM (inactive) | 39.4 µM (inactive) | 41.3 µM (inactive) | 
C/C(=N\Nc1nc2ccccc2[nH]1)c1cccc[n+]1[O-] | 71 µM (inactive) | > 100 µM (inactive) | 44.7 µM (inactive) | 56.6 µM (inactive) | > 100 µM (inactive) | > 100 µM (inactive) | 52.7 µM (inactive) | > 100 µM (inactive) | > 100 µM (inactive) | 37.6 µM (inactive) | > 100 µM (inactive) | > 100 µM (inactive) | > 100 µM (inactive) | > 100 µM (inactive) | > 100 µM (inactive) | > 100 µM (inactive) | > 100 µM (inactive) |  | > 100 µM (inactive) | 8.91 µM (inactive)
